Values quoted from earlier work, collected in US10610591B2, “Light responsive quantum dot drug delivery system” (Nanoco Technologies Ltd., priority 2017, dated 2020).
Blank lines part the entries; values can stand above or below the molecule they belong to.

Legend:
[1] = not given; remark: listed apart in the source
[2] = pH 7.4

Molecule: 7-Ethyl-10-hydroxycamptothecin
solubility in DMSO (DMSO): 2000 µg/mL | solubility in water (water): essentially insoluble in water

log P (log Po/w, log Poct/wat, log Pexp) ([1]; octanol/water): 2.4
Molecule: CC(C)(C#N)c1cc(Cn2cncn2)cc(C(C)(C)C#N)c1 [anastrozole, alpha,alpha,alpha′,alpha′-tetramethyl-5-(1H,1,2,4-triazol-1-ylmethyl)-m-benzenediacetonitrile]

log D7.4 [2]: 0.12 | log P^N (neutral) ([1]; neutral): 3.60
Molecule: CC1=C(CC(=O)O)c2cc(F)ccc2/C1=C\c1ccc([S+](C)[O-])cc1 (centres unmarked) [sulindac]
